Source: patent US12617756B2 (ABIVAX, priority 2019, dated 2026)

Test system: RSV A2
Assay: Screening for RSV inhibition using Viral ToxGlo assay (cytopathic effect inhibition in HEp-2 cells)
Type: cell-based, Respiratory Syncytial Virus (RSV)
Details: human respiratory syncytial virus; RSV A2 in HEp-2 cells, MOI 0.5, 72h p.i., cytopathic effect inhibition relative to virus control, Viral ToxGlo luminescence
Protocol: Protocol for Screening Antiviral Compounds for RSV Inhibition and Cytotoxicity Using Viral ToxGlo Assay
HEp-2 cells were maintained in Eagle's minimum essential medium (EMEM) with Earle's BSS adjusted to contain 2 mM L-glutamine, 10% fetal bovine serum, 100 U/ml penicillin and 100 µg/ml streptomycin. For the purposes of the screening assay they were grown to 90% confluency, trypsinized and recovered. The trypsin was neutralised with cell culture media and cells were centrifuged at 150×g for 5 minutes before discarding the supernatant and resuspending cell pellet in assay media (EMEM with Earle's BSS adjusted to contain 2 mM L-glutamine, 2% fetal bovine serum and 100 U/ml penicillin and 100 µg/ml streptomycin). The cells were seeded into white clear-bottomed cell culture plates at a density of 1.5×10^4 cells/well in 50 μl and 4×10^3 cells/well in 25 μl for 96 well plates and 384 well plates respectively. For the media/background control column assay media only was added. Cell plates were placed in a humid chamber and incubated overnight at 37° C./5% CO2. After overnight incubation cells were checked for confluency and healthy appearance.
Test articles were made up at 10× test concentration in a maximum DMSO concentration of 10% (final assay concentration maximal 1% DMSO) and added to the cell plates in volumes of […] for 96 well plates and 5 μl for 384 well plates. For cell control and virus control wells the test article solvent only was added. Virus or assay media for cytotoxicity test wells and media/cell control wells was added immediately after test articles at an MOI of […] for 96 and 384 well plates respectively. Virus suspension was prepared by thawing RSV A2 frozen stocks and diluting to the required concentration of plaque forming units in assay media on ice.
Cell plates were further incubated inside a humid chamber for 72h p.i at 37° C./5% CO2. After the incubation period cells were observed under the microscope to check for characteristic cytopathic effect in virus control wells and healthy cells in the cell control wells. After plates were adjusted to room temperature 20/40 μl Viral ToxGlo (Promega) was added to each well of the 384/96 well cell plates. Plates were incubated at room temperature, protected from light on a plate rocker for 20 minutes before measuring the luminescence on a spectrophotometer (Biotek Synergy HTX).

Row | SMILES | EC50 [nM]
1 | CC(C)C(=O)Nc1cccc(Nc2ccc(C(=O)N=C3NCCN3)cc2Cl)c1 [Compound 72, 3-chloro-N-[(2E)-imidazolidin-2-ylidene]-4-{[3-(2-methylpropanamido)phenyl]amino}benzamide] | 1230
2 | O=C(N=C1NCCN1)c1ccc(Nc2cc(F)cc(C(=O)N3CCOCC3)c2)c(C2CC2)c1 [Compound 73, 3-cyclopropyl-4-{[3-fluoro-5-(morpholine-4-carbonyl)phenyl]amino}-N-[(2Z)-imidazolidin-2-ylidene]benzamide] | 1290
3 | CC(C)(C)c1cc(C(=O)N=C2NCCN2)ccc1Nc1cc(C(=O)NCCC2CCOCC2)ccn1 [Compound 74, 2-[(2-tert-butyl-4-{[(2E)-imidazolidin-2-ylidene]carbamoyl}phenyl)amino]-N-[2-(oxan-4-yl)ethyl]pyridine-4-carboxamide] | 1310
4 | CC(C)NC(=O)c1cccc(Nc2c(F)cc(C(=O)N=C3NCCN3)cc2C2CC2)c1 [Compound 91, 3-cyclopropyl-5-fluoro-N-[(2Z)-imidazolidin-2-ylidene]-4-({3-[(propan-2-yl)carbamoyl]phenyl}amino)benzamide] | 2
5 | CC(C)NC(=O)c1cccc(Nc2ccc(C(=O)N=C3NCCN3)cc2C2CC2)c1-c1ccoc1 [Compound 92, 3-[(2-cyclopropyl-4-{[(2Z)-imidazolidin-2-ylidene]carbamoyl}phenyl)amino]-2-(furan-3-yl)-N-(propan-2-yl)benzamide] | 277
6 | O=C(N=C1NCCN1)c1ccc(Nc2cccc(C(=O)NC3CCS(=O)(=O)CC3)c2Cl)c(C2CC2)c1 [Compound 94, 4-({2-chloro-3-[(1,1-dioxo-1λ^6-thian-4-yl)carbamoyl]phenyl}amino)-3-cyclopropyl-N-[(2E)-imidazolidin-2-ylidene]benzamide] | 240
7 | O=C(N=C1NCCN1)c1ccc(Nc2cccc(C(=O)NC3CCOC3)c2)c(C2CCCC2)c1 (stereo not shown) [Compound 95, 3-cyclopentyl-N-[(2Z)-imidazolidin-2-ylidene]-4-({3-[(oxolan-3-yl)carbamoyl]phenyl}amino)benzamide] | 95.9
8 | O=C(N=C1NCCN1)c1ccc(Nc2cccc(C(=O)NC3CCOCC3)c2)c(C2CCCC2)c1 [Compound 96, 3-cyclopentyl-N-[(2Z)-imidazolidin-2-ylidene]-4-({3-[(oxan-4-yl)carbamoyl]phenyl}amino)benzamide] | 839
9 | O=C(N=C1NCCN1)c1ccc(Nc2cccc(C(=O)N3CCOCC3)c2Cl)c(C2CCCO2)c1 (stereo not shown) [Compound 97, 4-{[2-chloro-3-(morpholine-4-carbonyl)phenyl]amino}-N-[(2E)-imidazolidin-2-ylidene]-3-(oxolan-2-yl)benzamide] | 51
10 | CC(C)NC(=O)c1cccc(Nc2ccc(C(=O)N=C3NCCN3)cc2C2CC2)c1F [Compound 98, 3-cyclopropyl-4-({2-fluoro-3-[(propan-2-yl)carbamoyl]phenyl}amino)-N-[(2Z)-imidazolidin-2-ylidene]benzamide] | 228
11 | CC1(NC(=O)c2nccc(Nc3c(F)cc(C(=O)N=C4NCCN4)cc3C3CC3)c2F)CC1 [Compound 99, 4-[(2-cyclopropyl-6-fluoro-4-{[(2Z)-imidazolidin-2-ylidene]carbamoyl}phenyl)amino]-3-fluoro-N-(1-methylcyclopropyl)pyridine-2-carboxamide] | 35.3
12 | CC(C)CCC(=O)Nc1ccccc1Oc1ccc(C(=O)N=C2NCCN2)cc1C1CC1 [Compound 100, 3-cyclopropyl-N-[(2E)-imidazolidin-2-ylidene]-4-[2-(4-methylpentanamido)phenoxy]benzamide] | 458
13 | CC1(NC(=O)c2cccc(Nc3ccc(C(=O)N=C4NCCN4)cc3S(C)(=O)=O)c2Cl)CC1 [Compound 102, 2-chloro-3-[(4-{[(2Z)-imidazolidin-2-ylidene]carbamoyl}-2-methanesulfonylphenyl)amino]-N-(1-methylcyclopropyl)benzamide] | 819
14 | O=C(N=C1NCCN1)c1ccc(Nc2cccc(C(=O)N3CCS(=O)(=O)CC3)c2Cl)c(C2CC2)c1 [Compound 103, 4-{[2-chloro-3-(1,1-dioxo-1)^6-thiomorpholine-4-carbonyl)phenyl]amino}-3-cyclopropyl-N-[(2E)-imidazolidin-2-ylidene]benzamide] | 19.4
15 | CC(C)C1COCCN1C(=O)c1cccc(Nc2ccc(C(=O)N=C3NCCN3)cc2C2CC2)c1Cl (stereo not shown) [Compound 104, 4-({2-chloro-3-[3-(propan-2-yl)morpholine-4-carbonyl]phenyl}amino)-3-cyclopropyl-N-[(2Z)-imidazolidin-2-ylidene]benzamide] | 12.4
16 | CC(C)C1CN(C(=O)c2cccc(Nc3ccc(C(=O)N=C4NCCN4)cc3C3CC3)c2Cl)CCO1 (stereo not shown) [Compound 105, 4-({2-chloro-3-[2-(propan-2-yl)morpholine-4-carbonyl]phenyl}amino)-3-cyclopropyl-N-[(2Z)-imidazolidin-2-ylidene]benzamide] | 3.2
17 | Cc1cc(C(=O)N=C2NCCN2)cc(C2CC2)c1Nc1cccc(C(=O)NC(C)C)c1 [Compound 106, 3-cyclopropyl-N-[(2Z)-imidazolidin-2-ylidene]-5-methyl-4-({3-[(propan-2-yl)carbamoyl]phenyl}amino)benzamide] | 5.7
18 | CC(C)CC1(NC(=O)c2cccc(Nc3ccc(C(=O)N=C4NCCN4)cc3C3CC3)c2)CC1 [Compound 107, 3-cyclopropyl-N-[(2Z)-imidazolidin-2-ylidene]-4-[(3-{[1-(2-methylpropyl)cyclopropyl]carbamoyl}phenyl)amino]benzamide] | 14
19 | O=C(N=C1NCCN1)c1ccc(Nc2cccc(C(=O)NCC3CCCO3)c2Cl)c(C2CC2)c1 (stereo not shown) [Compound 109, 4-[(2-chloro-3-{[(oxolan-2-yl)methyl]carbamoyl}phenyl)amino]-3-cyclopropyl-N-[(2E)-imidazolidin-2-ylidene]benzamide] | 45
20 | CC(=O)N1CCN/C1=N\C(=O)c1ccc(Nc2cccc(NC(=O)C(C)C)c2)c(C2CC2)c1 [Compound 110, N-[(2E)-1-acetylimidazolidin-2-ylidene]-3-cyclopropyl-4-{[3-(2-methylpropanamido)phenyl]amino}benzamide] | 324
21 | CC(C)(C)C1(NC(=O)c2cccc(Nc3ccc(C(=O)N=C4NCCN4)cc3C3CC3)c2)CC1 [Compound 111, 4-({3-[(1-tert-butylcyclopropyl)carbamoyl]phenyl}amino)-3-cyclopropyl-N-[(2Z)-imidazolidin-2-ylidene]benzamide] | 30.4
22 | CC(C)NC(=O)c1cc(C#N)cc(Nc2ccc(C(=O)N=C3NCCN3)cc2C2CC2)c1 [Compound 112, 4-({3-cyano-5-[(propan-2-yl)carbamoyl]phenyl}amino)-3-cyclopropyl-N-[imidazolidin-2-ylidene]benzamide] | 710
23 | CC(C)C(=O)Nc1cccc(Nc2ccc(C(=O)N=C3NCCN3CC(F)F)cc2C2CC2)c1 [Compound 113, 3-cyclopropyl-N-[1-(2,2-difluoroethyl)imidazolidin-2-ylidene]-4-{[3-(2-methylpropanamido)phenyl]amino}benzamide] | 59.9
24 | O=C(N=C1NCCN1)c1ccc(Nc2cccc(C(=O)NC3(C(F)(F)F)CC3)c2Cl)c(C2CC2)c1 [Compound 114, 4-[(2-chloro-3-{[1-(trifluoromethyl)cyclopropyl]carbamoyl}phenyl)amino]-3-cyclopropyl-N-[imidazolidin-2-ylidene]benzamide] | 32.6
25 | O=C(N=C1NCCN1)c1ccc(Nc2cccc(C(=O)N3CCOCC3)c2C(F)(F)F)c(C2CC2)c1 [Compound 115, 3-cyclopropyl-N-[imidazolidin-2-ylidene]-4-{[3-(morpholine-4-carbonyl)-2-(trifluoromethyl)phenyl]amino}benzamide] | 29.6
26 | O=C(N=C1NCCN1)c1ccc(Nc2cccc(C(=O)NC3CC3)c2C(F)(F)F)c(C2CC2)c1 [Compound 116, 3-cyclopropyl-4-f{[3-(cyclopropylcarbamoyl)-2-(trifluoromethyl)phenyl]amino}-N—[imidazolidin-2-ylidene]benzamide] | 131
27 | CC1(NC(=O)c2cccc(Nc3c(F)cc(C(=O)N=C4NCCN4)cc3C3CC3)c2)CC1 [Compound 117, 3-cyclopropyl-5-fluoro-N-[imidazolidin-2-ylidene]-4-({3-[(1-methylcyclopropyl)carbamoyl]phenyl}amino)benzamide] | 5.6
28 | O=C(N=C1NCCN1)c1ccc(Nc2cc(F)cc(C(=O)N3CCOCC3)c2Cl)c(C2CC2)c1 [Compound 118, 4-{[2-chloro-5-fluoro-3-(morpholine-4-carbonyl)phenyl]amino}-3-cyclopropyl-N-[imidazolidin-2-ylidene]benzamide] | 27
